Where two headings read alike, the source gives them in different places.
Tests used:
[1] = test system: TNF-α-induced NF-κB activity; assay: Inhibition of TNF-α-activated NF-κB, luciferase reporter assay in HEK293 cells; type: cell-based, human; settings: for inhibition at 50 µM / IC50: Homo sapiens; for inhibition at 50 µM: read-out: NF-κB assay % inhib.
Text: To study the inhibition of tumor necrosis factor-alpha (TNF-α)-induced activation of nuclear factor-kappa B (NF-κB), human embryonic kidney 293 cells (HEK293) stably transfected with an NF-κB-responsive luciferase reporter construct (Cat. No. RC0014, Panomics, Fremont, CA, USA) were utilized, following previously described protocols (Kondratyuk et al. [2012]). This cell line incorporates a chromosomally integrated luciferase reporter, which produces luciferase enzyme upon NF-κB activation. The enzyme reacts with its substrate to produce a luminescent signal, detectable via luminometry. Cells were seeded at a density of 2 × 10^4 cells/mL in 96-well plates and cultured in Dulbecco’s Modified Eagle Medium (DMEM, Cat. No. D6429, Sigma-Aldrich, Saint Louis, MO, USA) supplemented with 10% fetal bovine serum (FBS, Cat. No. A5670701, Gibco™, Thermo Fisher Scientific, Waltham, MA, USA). The medium also contained 100 µg/mL streptomycin sulfate and 100 IU/mL penicillin G (Cat. No.15140 Gibco BRL, Grand Island, NY, USA). The cells were then treated with varying concentrations of the test sample and stimulated with recombinant human TNF-α (2 ng/mL, Cat. No. HZ-1014, Proteintech Group, Inc. Rosemont, IL, USA).
Following a 6-hour incubation, the cells were rinsed with phosphate buffer saline (PBS), lysed with 40 μL of 1X Reporter Lysis Buffer (Cat. No. E2661, Promega, Madison, WI, USA), and subjected to a freeze-thaw cycle (−80 °C/37 °C). Luminescence, generated by the luciferase reaction, was quantified using the Luc assay system (Cat. No. N1610, Promega, Madison, WI, USA) and a LUMIstar Galaxy luminometer (BMG, Offenburg, Germany).

[2] = test system: NO production in LPS-activated murine macrophage RAW 264.7 cells; assay: cells; type: cell-based, mouse; settings: for inhibition at 50 µM / IC50: Mus musculus; for inhibition at 50 µM: read-out: Nitrite assay % inhib.; for NO inhibitory activity: compared with positive control L-NMMA / within the series
Description: The inhibition of nitric oxide (NO) production in lipopolysaccharide (LPS)-stimulated murine macrophage RAW 264.7 cells was evaluated following previously described methods (Min et al. [2009]). RAW 264.7 cell line was purchased from ATCC (Cat. No. TIB-71, Manassas, VA, USA) and cultured in Dulbecco’s modified Eagle’s medium (DMEM, Cat. No. 12800-082, Invitrogen, Massachusetts, USA) supplemented with 10% heat-inactivated fetal bovine serum (FBS, Cat. No. 26140, Gibco BRL Co, Grand Island, NY, USA), 100× penicillin G and streptomycin (Cat. No.11074440001, Sigma-Aldrich, Saint Louis, MO, USA) and 2 mM L-glutamine (Cat. No. 25030, Gibco BRL Co, Grand Island, NY, USA). Cells were seeded at 10 × 10^5 cells per well in 96-well plates and incubated for 24 h at 37 °C in a humidified atmosphere containing 5% CO2.
(§1) Test compounds were dissolved in phenol red-free DMEM (Cat. No. 12-917 F, Lonza, Massachusetts, USA) and added to the cells as a pretreatment for 30 min. The cells were then exposed to LPS (1 µg/mL, Cat. No. L-2762, Sigma-Aldrich, Saint Louis, MO, USA) for 20 h. Nitric oxide levels were quantified using the Griess reagent, which consists of a 1:1 (v/v) mixture of 1% sulfanilamide (Cat.No. A13001, Alfa Aesar, Massachusetts, USA) in H3PO4 and N-(1-naphthyl)ethylenediamine dihydrochloride (Cat. No. 102397, MP Biomedicals, USA). A standard curve was generated using sodium nitrite (Cat. No. 44227, Alfa Aesar, Massachusetts, USA), and IC50 values were calculated using Table Curve 2D software (Version 4.07, AISN Software Inc., Richmond, VA, USA). Also, a sulforhodamine B (SRB, Cat. No. S9012, Sigma-Aldrich, Saint Louis, MO, USA) assay was performed to assess the cytotoxic effects of the test compounds on RAW 264.7 cells.

RAW 264.7 cells = assay: SRB cytotoxicity / survival of RAW 264.7 cells in the nitrite assay; type: cell-based, mouse; settings: for Nitrite assay % surv.: % survival at a concentration of 50 μM, RAW 264.7; for cytotoxicity in NO assay: RAW 264.7 cells
Description: as §1

[3] = test system: human embryonic kidney 293 cells (HEK293); assay: Cell survival in the NF-κB assay; type: cell-based
[4] = test system: NO-production in LPS-stimulated RAW 264.7 cells; parameters: method as in Choudhari et al. [2013]; Park et al. [2019]; settings: ref Choudhari et al. [2013], Park et al. [2019], read-out: NO-production IC50 (literature); cited from earlier work
[5] = SRB cytotoxicity / survival of RAW 264.7 cells in the nitrite assay; type: cell-based, mouse; settings: mouse; cytotoxicity in RAW 264.7 cells, NO assay; read-out: cytotoxic IC50
Description: as §1

[6] = HEK293, % inhibition at a concentration of 50 μM, TNF-α 2 ng/mL, 6 h
[7] = TNF-α-induced NF-κB luciferase, HEK293, read-out: NF-κB assay IC50
[8] = RAW264.7, read-out: Nitrite assay IC50
[9] = HEK293, read-out: NF-κB assay IC50
[10] = RAW264.7, % inhibition of NO at 50 μM, LPS 1 µg/mL, 20 h
[11] = RAW264.7, LPS-activated RAW 264.7 cells, read-out: Nitrite assay IC50
[12] = % survival at a concentration of 50 μM

SMILES	inhibition at 50 µM [1, 6]	IC50 [1, 7]	inhibition at 50 µM ([2]; RAW264.7, 20 h)	IC50 [2, 8]	Nitrite assay % surv. (RAW 264.7 cells)	cytotoxicity in NO assay (RAW 264.7 cells)	NF-κB assay % surv. ([3]; human, 6 h, 50 µM)	IC50 [4]	IC50 at 20 h [5]	NO inhibitory activity [2]	inhibition at 50 µM ([1]; HEK293, 6 h)	IC50 [1, 9]	inhibition at 50 µM [2, 10]	IC50 [2, 11]	NF-κB assay % surv. [3, 12]	NF-κB activity enhanced relative to parent compound ([1]; acetate versus parent, from IC50)
CC1=C(C)C(=O)OC(C(C)(O)C2(O)CCC3(O)C4CC(O)C5(O)C(O)C(O)CC(=O)C5(C)C4CCC32C)C1 [Compound 1, (20S,22R)-3α,4β,5α,6β,14α,17β,20β-heptahydroxy-1-oxowitha-24-ene-26,22-olide]	93.4 ± 1.2%	10 ± 10 nM	82.4 ± 1.1%	13300 ± 200 nM	100 ± 1.1%	without significant cytotoxicity	100 ± 24.5%	–	–	–	–	–	–	–	–	–
CC1=C(C)C(=O)OC(C(C)(O)C2(O)CCC3(O)C4CC(Cl)C5(O)C(O)C=CC(=O)C5(C)C4CCC32C)C1 [Compound 2, (20S,22R)-4β,5β,14α,17β,20α-pentahydroxy-6α-chloro-1-oxowitha-2,24-diene-22,26-olide]	97.4 ± 1.1%	60 ± 20 nM	99.4 ± 0.1%	3300 ± 300 nM	96.1 ± 3.2%	without significant cytotoxicity	100.0 ± 14.4%	–	–	–	–	–	–	–	–	–
CC(=O)OC1C=CC(=O)C2(C)C3CCC4(C)C(O)(CCC4(O)C(C)(O)C4CC(C)=C(C)C(=O)O4)C3CC(Cl)C12O (stereo not shown) [Compound 2a]	92.2 ± 0.6%	1100 ± 420 nM	99.2 ± 2.6%	8700 ± 600 nM	93.2 ± 2.3%	without significant cytotoxicity	12.3 ± 7.58%	–	–	–	–	–	–	–	–	–
CC1=C(C)C(=O)OC([C@](C)(O)[C@]2(O)CC[C@@]3(O)C4C[C@H]5O[C@]56[C@@H](O)C=CC(=O)[C@]6(C)C4CC[C@]23C)C1 (stereo partly drawn) [Compound 3, 4β-hydroxywithanolide E]	99.5 ± 0.1%	40 ± 30 nM	99.2 ± 0.4%	320 ± 20 nM	50.1 ± 2.3%	–	88.6 ± 10.1%	900 nM	14000 nM	–	–	–	–	–	–	–
CC(=O)O[C@H]1C=CC(=O)[C@]2(C)C3CC[C@]4(C)[C@](O)([C@@](C)(O)C5CC(C)=C(C)C(=O)O5)CC[C@@]4(O)C3C[C@H]3O[C@]132 (stereo partly shown) [Compound 3a]	99.9 ± 0.9%	470 ± 610 nM	99.2 ± 0.4%	240 ± 10 nM	38.9 ± 2.3%	–	2.2 ± 2.6%	–	2100 nM	most active	–	–	–	–	–	–
CO[C@H]1CC(=O)[C@]2(C)C3CC[C@@]4(C)C(=C3C[C@H]3O[C@]32[C@H]1O)CC[C@@]4(O)[C@@](C)(O)C1CC(C)=C(C)C(=O)O1 (stereo partly shown) [Compound 4, physalactone]	–	–	–	–	90.7 ± 5.0%	without significant cytotoxicity	–	–	–	–	66.7 ± 3.9%	11000 ± 2300 nM	97.9 ± 2%	1800 ± 170 nM	100.0 ± 16.6%	–
CO[C@H]1CC(=O)[C@]2(C)C3CC[C@@]4(C)C(=C3C[C@H]3O[C@]32[C@H]1OC(C)=O)CC[C@@]4(O)[C@@](C)(O)C1CC(C)=C(C)C(=O)O1 (stereo partly shown) [Compound 4a]	–	–	–	–	40.3 ± 4.1%	–	–	–	–	most active	88 ± 1.3%	330 ± 100 nM	99.8 ± 0.3%	240 ± 10 nM	77.7 ± 5.3%	over 30 fold
